Measurements: PubChem BioAssay AID1963870 (Molecular Pharmacology Branch, DTP, NCI, 2024)
pIC50: −log10 of the molar value.

Tested on: 292921-168-R-J2-PDC KRAS tumor spheroid viability
Experiment: Anticancer human tumor 292921-168-R-J2-PDC patient-derived pancreatic carcinoma cell line growth inhibition [KRAS2]
Conditions: spheroids with HUVEC and MSC; for pIC50: curve of first compound; for viability, T/C: stronger effect = lower value
In short: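 Combination screen of spheroid viability in tumor-cell co-cultures with endothelial (HUVEC) and mesenchymal stem cell stroma. Each agent was tested in half-log dilutions, topping at clinical Cmax or at 10 microM without a known Cmax.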

[1] = second compound 0.1 µM, first compound 0.0316 µM
[2] = second compound 0.316 µM, first compound 0.0316 µM
[3] = second compound 1 µM, first compound 0.0316 µM
[4] = second compound 3.16 µM, first compound 0.0316 µM
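Also: drug exposure lasted seven days after spheroids formed for three days.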
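For viability, T/C in this document: percent of DMSO vehicle control viability which is 100%.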

## CC(=O)Nc1cccc(-n2c(=O)n(C3CC3)c(=O)c3c(Nc4ccc(I)cc4F)n(C)c(=O)c(C)c32)c1 + C=CC(=O)N1CCN(c2nc(=O)n(-c3c(C)ccnc3C(C)C)c3nc(-c4c(O)cccc4F)c(F)cc23)C(C)C1
Second compound 0.1 µM
  pIC50: 9.47
Second compound 0.316 µM
  pIC50: 9.33
Second compound 1 µM
  pIC50: 9.40
Second compound 3.16 µM
  pIC50: 9.63
Second compound 10 µM
  pIC50: > 10.00
Second compound 0.1 µM, first compound 0.0001 µM
  viability, T/C: 90%
Second compound 0.1 µM, first compound 0.000316 µM
  viability, T/C: 51.6%
Second compound 0.1 µM, first compound 0.001 µM
  viability, T/C: 27.4%
Second compound 0.1 µM, first compound 0.00316 µM
  viability, T/C: 18.7%
Second compound 0.1 µM, first compound 0.01 µM
  viability, T/C: 12.8%
[1]
  viability, T/C: 7.68%
Second compound 0.316 µM, first compound 0.0001 µM
  viability, T/C: 92%
Second compound 0.316 µM, first compound 0.000316 µM
  viability, T/C: 60.1%
Second compound 0.316 µM, first compound 0.001 µM
  viability, T/C: 30.3%
Second compound 0.316 µM, first compound 0.00316 µM
  viability, T/C: 18.9%
Second compound 0.316 µM, first compound 0.01 µM
  viability, T/C: 11.9%
[2]
  viability, T/C: 7.86%
Second compound 1 µM, first compound 0.0001 µM
  viability, T/C: 86.9%
Second compound 1 µM, first compound 0.000316 µM
  viability, T/C: 54.4%
Second compound 1 µM, first compound 0.001 µM
  viability, T/C: 31.9%
Second compound 1 µM, first compound 0.00316 µM
  viability, T/C: 19.6%
Second compound 1 µM, first compound 0.01 µM
  viability, T/C: 12.1%
[3]
  viability, T/C: 8.24%
Second compound 3.16 µM, first compound 0.0001 µM
  viability, T/C: 62.1%
Second compound 3.16 µM, first compound 0.000316 µM
  viability, T/C: 46.4%
Second compound 3.16 µM, first compound 0.001 µM
  viability, T/C: 26.8%
Second compound 3.16 µM, first compound 0.00316 µM
  viability, T/C: 17.5%
Second compound 3.16 µM, first compound 0.01 µM
  viability, T/C: 11.5%
[4]
  viability, T/C: 9.06%
Second compound 10 µM, first compound 0.0001 µM
  viability, T/C: 23%
Second compound 10 µM, first compound 0.000316 µM
  viability, T/C: 19.9%
Second compound 10 µM, first compound 0.001 µM
  viability, T/C: 10.9%
Second compound 10 µM, first compound 0.00316 µM
  viability, T/C: 11.7%
Second compound 10 µM, first compound 0.01 µM
  viability, T/C: 9.79%
Second compound 10 µM, first compound 0.0316 µM
  viability, T/C: 9.65%

## CC1OCC2(CCN(c3cnc(Sc4ccnc(N)c4Cl)c(N)n3)CC2)C1N (stereo not given) + C=CC(=O)N1CCN(c2nc(OCC3CCCN3C)nc3c2CCN(c2cccc4cccc(C)c24)C3)CC1CC#N
Second compound 0.0316 µM
  pIC50: 6.42
Second compound 0.1 µM
  pIC50: 6.64
Second compound 0.316 µM
  pIC50: 7.02
Second compound 1 µM
  pIC50: > 7.50
Second compound 3.16 µM
  pIC50: > 7.50
Second compound 0.0316 µM, first compound 0.0316 µM
  viability, T/C: 92.1%
Second compound 0.0316 µM, first compound 0.1 µM
  viability, T/C: 68%
Second compound 0.0316 µM, first compound 0.316 µM
  viability, T/C: 48.8%
Second compound 0.0316 µM, first compound 1 µM
  viability, T/C: 45.6%
Second compound 0.0316 µM, first compound 3.16 µM
  viability, T/C: 32.9%
Second compound 0.0316 µM, first compound 10 µM
  viability, T/C: 28.4%
[1]
  viability, T/C: 82.9%
Second compound 0.1 µM, first compound 0.1 µM
  viability, T/C: 61.2%
Second compound 0.1 µM, first compound 0.316 µM
  viability, T/C: 43.8%
Second compound 0.1 µM, first compound 1 µM
  viability, T/C: 36.9%
Second compound 0.1 µM, first compound 3.16 µM
  viability, T/C: 37.6%
Second compound 0.1 µM, first compound 10 µM
  viability, T/C: 26.8%
[2]
  viability, T/C: 66.1%
Second compound 0.316 µM, first compound 0.1 µM
  viability, T/C: 47.8%
Second compound 0.316 µM, first compound 0.316 µM
  viability, T/C: 37.4%
Second compound 0.316 µM, first compound 1 µM
  viability, T/C: 37.3%
Second compound 0.316 µM, first compound 3.16 µM
  viability, T/C: 27.5%
Second compound 0.316 µM, first compound 10 µM
  viability, T/C: 25.3%
[3]
  viability, T/C: 20.5%
Second compound 1 µM, first compound 0.1 µM
  viability, T/C: 18.6%
Second compound 1 µM, first compound 0.316 µM
  viability, T/C: 16.4%
Second compound 1 µM, first compound 1 µM
  viability, T/C: 17.4%
Second compound 1 µM, first compound 3.16 µM
  viability, T/C: 16.1%
Second compound 1 µM, first compound 10 µM
  viability, T/C: 15.8%
[4]
  viability, T/C: 0.11%
Second compound 3.16 µM, first compound 0.1 µM
  viability, T/C: 0.11%
Second compound 3.16 µM, first compound 0.316 µM
  viability, T/C: 0.11%
Second compound 3.16 µM, first compound 1 µM
  viability, T/C: 0.1%
Second compound 3.16 µM, first compound 3.16 µM
  viability, T/C: 0.11%
Second compound 3.16 µM, first compound 10 µM
  viability, T/C: 0.17%
